According to article PMC12655351, “Synthesis and Anticancer Activity Evaluation of New 5-((5-Nitrofuran-2-yl)allylidene)-2-thioxo-4-thiazolidinones” (Pharmaceuticals, 2025):

How the values were obtained:
[1] = system: caspase-3 in MDA-MB-231 cells; assay: caspase-3 ELISA; assay type: cell-based, human; conditions: MDA-MB-231, 10 μM (highest concentration), 24 h
Method: (§1) To confirm the activity of the caspase pathway, an effector caspase-3 was assayed on MCF-7 and MDA-MB-231 cell lines after 24 h of treatment using the ELISA method. Novel 4-thiazolidinone derivatives were tested in concentrations of 1 and 5 μM for the MCF-7 cell line and 5 and 10 μM for the MDA-MB-231 cell line.
(§2) Using a SimpleStep ELISA kit (Abcam, Cambridge, UK), we determined the levels of cytochrome C and caspase-3 in cells’ lysates with 2b, 12b, and 14b (1 and 5 μM for the MCF-7 cell line and 5 and 10 μM for the MDA-MB-231) and doxorubicin in concentrations of 1 and 5 μM for both lines after 24 h incubation. Assays were performed according to the manufacturer’s protocols.

caspase-3 in MCF-7 cells = assay: caspase-3 ELISA; assay type: cell-based, human; conditions: MCF-7, 1 μM, 24 h
Method: as §1, §2

NCI-H266 = conditions: human, 48 h
MDA-MB-231 cell line = assay: Annexin V-FITC/propidium iodide flow cytometry; assay type: cell-based, human; conditions: 24 h
Method: Similarly to Figure 3, Figure 4 showcases the flow cytometric assessment of compounds effects on apoptosis induction on the MDA-MB-231 cell line after 24 h of incubation with tested structures. For this cell line, based on previous results, higher concentrations of tested compounds were chosen: 5 and 10 μM. […] At the same time, compound 12b showcased 7.3% of early and late apoptotic cells, 1.2% of necrotic cells in 5 μM concentration, and 13.8% and 22.3% in 10 μM concentration, consequently.
To conduct induction of apoptosis on MCF-7 and MDA-MB-231 cell lines, three compounds with the lowest IC50 values were selected (2b, 12b, 14b). The concentration of these compounds depended on the cell line. For MCF-7 cell line concentrations of 1 and 5 μM were used, while for MDA-MB-231 cell line concentrations were 5 and 10 μM. For both cell lines doxorubicin was used as a reference compound in 1 and 5 μM concentrations. This study was evaluated using a flow cytometer (BD FACSCanto II, Becton Dickinson Biosciences Systems, San Jose, CA, USA) and Annexin V binding Apoptosis Detection Kit II (BD Biosciences, San Diego, CA, USA). Cells were seeded in 6-well culture plates cultured in accordance with the previously described methodology. The medium was removed from wells and then cells were washed with PBS. A cell suspension was prepared in the binding buffer provided in the kit at a concentration of 1 × 10^6 cells/mL. A total of 100 µL of cell suspension was collected from each sample and transferred to the tubes. Afterwards, 5 µL of Annexin V-FITC and 4 µL of propidium iodide (PI) were added to each tube and then the tubes were incubated in the dark for 15 min at room temperature. After incubation, the suspension was supplemented to 300 µL with a binding buffer and immediately read in a BD FACSCanto II flow cytometer (Becton Dickinson Biosciences, San Jose, CA, USA), where 10,000 events per sample were measured. Results were analyzed using FACSDiva Software Version 6.1.3. (BD Biosciences Systems, San Jose, CA, USA).

SNB-75 = conditions: human, 48 h
HCC-2998 = assay: cells; conditions: Homo sapiens, HCC 2998, 48 h
EKVX = conditions: human, 48 h
SNB-19 = conditions: human, 48 h
SK-MEL-2 = conditions: human, 48 h
COLO 205 = assay: cells; conditions: Homo sapiens, COLO 205, 48 h; for CC50: read-out: LC50, COLO 205, 48 h
NCI-H322M = conditions: human, 48 h
SF-295 = conditions: human, 48 h
ACHN = conditions: human, 48 h
U251 = conditions: human, 48 h
MDA-MB-231/ATCC = assay: cells; conditions: Homo sapiens, MDA-MB-231, 48 h; for GI50: MDA-MB-231/ATCC, 48 h; for CC50: read-out: LC50, MDA-MB-231/ATCC, 48 h
SF-539 = assay: cells; conditions: Homo sapiens, SF-539, 48 h
[2] = system: caspase-9 in MDA-MB-231 cells; assay: FLICA caspase-9 flow cytometry; assay type: cell-based, human; conditions: MDA-MB-231, 24 h, concentration not given
Method: To further analyze the compounds’ effects on the intrinsic pathway of the process of programmed cell death, it was decided to assess the expression of initiator caspase-9 on MCF-7 and MDA-MB-231 cell lines after 24 h of treatment using the flow cytometry method. Caspase-9 is an initiator caspase that directly activates executive caspase-3; as such, it has a significant effect on apoptosis. […] For the MDA-MB-231 line, the results were even more prominent, with every tested compound and concentration displaying a notable increase in cells with active caspase-9.
To determine the effects of the novel compounds on the caspase-9 activity, the FLICA Caspase-9 Assay Kit was applied (ImmunoChemistry Technologies, Bloomington, MN, USA). MCF-7 and MDA-MB-231 cells were seeded on 6-well plates (5 × 10^5 cells per well) and incubated for 24 h. Next, they were treated with tested compounds 2b, 12b, and 14b in a concentration of 1 and 5 µM for the MCF-7 cell line and 5 and 10 µM for the MDA-MB-231 cell line and the reference drug, doxorubicin hydrochloride, in a concentration of 1 and 5 µM for both lines for 24 h. […] Prepared samples were evaluated by a BD FACSCanto II flow cytometer (Becton Dickinson Biosciences, San Jose, CA, USA). For each sample, 1 × 10^4 events were analyzed. […]

| SMILES | change of caspase-3 concentration [1] | combined apoptotic cells (MDA-MB-231 cell line; MDA-MB-231, 5 μM) | necrotic cells (MDA-MB-231 cell line; MDA-MB-231, 5 μM) | combined apoptotic cells (MDA-MB-231 cell line; MDA-MB-231, 10 μM) | necrotic cells (MDA-MB-231 cell line; MDA-MB-231, 10 μM) | GI50 (HCC-2998) | GI50 (COLO 205) | CC50 (COLO 205) | GI50 (MDA-MB-231/ATCC) | CC50 (MDA-MB-231/ATCC) | GI50 (SF-539) | further results |
| --- | --- | --- | --- | --- | --- | --- | --- | --- | --- | --- | --- | --- |
| O=C(O)CCCCCN1C(=O)/C(=C/C=C/c2ccc([N+](=O)[O-])o2)SC1=S [14b, 6-((Z)-5-((E)-3-(5-nitrofuran-2-yl)allylidene)-4-oxo-2-thioxothiazolidin-3-yl)hexanoic acid] | at least two times more | 5.7% | 1.4% | 28.8% | 42.6% | 1.78 µM | 1.56 µM | 6.05 µM |  |  |  | change of caspase-3 concentration (caspase-3 in MCF-7 cells): statistically significant result; CC50 (NCI-H266): 96.3 µM; CC50 (SNB-75): 4.03 µM; CC50 (EKVX): 7.52 µM; CC50 (SNB-19): 6.67 µM; CC50 (SK-MEL-2): 6.87 µM; CC50 (NCI-H322M): 6.92 µM; CC50 (SF-295): 6.61 µM; CC50 (ACHN): 5 µM; CC50 (U251): 5.02 µM |
| CCCC(C(=O)O)N1C(=O)/C(=C/C=C/c2ccc([N+](=O)[O-])o2)SC1=S (stereo not shown) [4b, 2-((Z)-5-((E)-3-(5-Nitrofuran-2-yl)allylidene)-4-oxo-2-thioxothiazolidin-3-yl)pentanoic acid] |  |  |  |  |  | 1.83 µM | 1.95 µM | 6.66 µM | 2.21 µM | 8.33 µM | 2.12 µM |  |
| O=C(O)C(c1ccccc1)N1C(=O)/C(=C/C=C/c2ccc([N+](=O)[O-])o2)SC1=S (stereo not shown) [9b, 2-((Z)-5-((E)-3-(5-Nitrofuran-2-yl)allylidene)-4-oxo-2-thioxothiazolidin-3-yl)-2-phenylacetic acid] |  |  |  |  |  | 15.6 µM | 6.65 µM | 60.4 µM | 10.8 µM | 54.2 µM | 12 µM |  |
| CC(C(=O)O)N1C(=O)/C(=C/C=C/c2ccc([N+](=O)[O-])o2)SC1=S (stereo not shown) [2b, 2-((Z)-5-((E)-3-(5-Nitrofuran-2-yl)allylidene)-4-oxo-2-thioxothiazolidin-3-yl)propanoic acid] | slight increase | 7.8% | 6.6% | 7.5% | 44% |  |  |  |  |  |  | cells with active caspase-9 [2]: 83.95% |
| CCCCC(C(=O)O)N1C(=O)/C(=C/C=C/c2ccc([N+](=O)[O-])o2)SC1=S (stereo not shown) [6b, 2-((Z)-5-((E)-3-(5-nitrofuran-2-yl)allylidene)-4-oxo-2-thioxothiazolidin-3-yl)hexanoic acid] |  |  |  |  |  | 1.83 µM | 2.02 µM | 6.65 µM | 2.27 µM | 8.73 µM | 1.89 µM |  |
| O=C(O)CCN1C(=O)/C(=C/C=C/c2ccc([N+](=O)[O-])o2)SC1=S [12b, 3-((Z)-5-((E)-3-(5-Nitrofuran-2-yl)allylidene)-4-oxo-2-thioxothiazolidin-3-yl)propanoic acid] | significant increase | 7.3% | 1.2% | 13.8% | 22.3% |  |  |  | 1.7 µM | 6.15 µM | 1.66 µM |  |
| CC(C)C(C(=O)O)N1C(=O)/C(=C/C=C/c2ccc([N+](=O)[O-])o2)SC1=S (stereo not shown) [5b, 3-Methyl-2-((Z)-5-((E)-3-(5-nitrofuran-2-yl)allylidene)-4-oxo-2-thioxothiazolidin-3-yl)butanoic acid] |  |  |  |  |  | 1.72 µM | 1.33 µM | 5.83 µM | 1.56 µM | 5.9 µM | 1.44 µM |  |
| O=C(O)CCCN1C(=O)/C(=C/C=C/c2ccc([N+](=O)[O-])o2)SC1=S [13b, 4-((Z)-5-((E)-3-(5-Nitrofuran-2-yl)allylidene)-4-oxo-2-thioxothiazolidin-3-yl)butanoic acid] |  |  |  |  |  |  |  |  |  |  |  | CC50 (NCI-H266): > 100 µM; CC50 (SNB-75): 5.49 µM; CC50 (EKVX): 6.05 µM; CC50 (SNB-19): 5.5 µM; CC50 (SK-MEL-2): 4.2 µM; CC50 (NCI-H322M): 22.8 µM; CC50 (SF-295): 5.08 µM; CC50 (ACHN): 3.72 µM |
